Laboratory results taken from US5670538A, “Use of prodelphinidins for obtaining medicaments intended for the treatment of arthrosis” (Laboratoires Dolisos, priority 1992, dated 1997).

How the values were obtained:
[1] = system: human articular chondrocytes; experiment: Radioimmunoassay of type II collagen (coll. II) produced in tridimensional culture of human chondrocytes; type: cell-based; settings: for activity at 1 µg/mL / activity at 10 µg/mL / activity at 100 µg/mL: Homo sapiens, Chondrocyte, 288 h, control = 100, read-out: Cumulative release of coll.II over 12 days, %; for Type II collagen in the culture media, effect in words / Collagen II in the clusters, effect in words: 10 and 100 μg/ml; for Coll. II in the clusters / Collagen II in the clusters, effect in words: experiment 397
Text: The model used for testing the proanthocyanidols, namely the tridimensional culture of human chondrocytes allows chondrorepair to be quantified by the production of matrix substances: type II collagen, proteoglycans, and chondroresorption by the reduction in the levels of prostaglandin E2 and of OH° and O°2 type free radicals produced.
1. Tridimensional culture of human chondrocytes
The technique used has been described in detail (Bassleer et al., 1986).
Briefly, human articular chondrocytes are cultivated in DMEM (Dulbecco's Modification of Eagle's Medium--ICN--Gand, Belgium) with either Ultroser G 1% (GIBCO, Gand, Belgium) or 10% of foetal calf serum (ICN--Gand--Belgium), and 50 μg of ascorbic acid/ml added to it. The cartilage originates from the apparently normal zone of heads of human femur suffering from arthrosis, immediately after an operation carried out to insert a total hip prosthesis; it can also originate from the head of a healthy femur, but which has undergone a traumatism and has had to be replaced. This cartilage is then digested by clostridial collagenase 1 mg/ml (Boehringer-Mannheim, Germany) in a buffer (NaCl 120 mM, CaCl2 1 mM, KCl 5 mM, KH2 PO4 1 mM, NaHCO3 25 mM, glucose 2 mM and Hepes 30 mM, pH 7.4) for 24 hours. After 6 successive washings and centrifugations, the chondrocytes, isolated from their matrix, are cultured in flasks (10^6 cells/2 ml of culture medium) placed on a gyrator (10 rpm). The cultures are kept at 37° C. in an atmosphere of air 95%-CO2 5% (Bassleer et al., 1986). Cultivated under these conditions, after 4 to 5 days the chondrocytes form a tridimensional cluster in each flask. These clusters, which at first have a flocculent appearance, then tend to condense during the culture. After two weeks, their diameter is, in general, from 1 to 2 mm.
The fresh weight of the clusters increases with the duration of the culture, above all during the few first days.
3. Radioimmunoassay of type II collagen (coll. II)
The method for the radioimmunoassay of coll. II has been described in detail (Henrotin et al., 1990). The coll. II is extracted from human articular cartilage according to the technique described by Herbage et al. (1977). The antiserum against coll. II was obtained from rabbits according to the technique of Vaitukaitis et al. (1971).
The assay is carried out by sequential saturation. In the first instance, the radioimmunoassay is carried out in a 0.3 ml volume consisting of 0.2 ml of incubation buffer (PBS-50 mM PO4, 300 mM NaCl, 5 g/l BSA (W/V), 6.7 mM sodium azide, pH 7.4) containing the reference coll. II (0.5 to 500 ng) or the sample to be assayed and 0.1 ml of anti-coll. II antiserum from guinea pigs diluted to 1/5000 (24 hours at 4° C.). In the second instance, 0.1 ml of ^125 I-coll. II tracer labelled according to the iodogenic technique (Salacynski et al., 1979 and diluted so as to obtain 20,000 cpm/0.1 ml) is added. After 24 hours at 4° C., the collagen-antibody complexes are separated from the free radioactive coll. II by the double antibody system (Franchimont et al. 1983). Sequential saturation gives a sensitivity of 3 ng/tube. The accuracy of the method is 10%. The coefficients of the intra- and inter assay variation are 10% and 20% respectively.
The assay is specific to human articular type II collagen.
No cross reaction is obtained with bovine collagen of type I, III or IV.
The culture media are stored at -20° C. in the presence of enzymatic inhibitors (Oegema et al., 1975). These media are assayed by the radio immunological method without any treatment beforehand. The chondrocyte clusters are washed and dissociated with ultrasonics according to the method described for the assay of the PGs. After centrifugation (1500 rpm, 10 minutes), the residue is extracted using 500 mM acetic acid under agitation for 24 hours at 4° C. The supernatant of the homogenate and the extract of the residue are mixed together and assayed after equilibration at pH 7.4 using 4M NaOH.
The recovery of coll. […]

[2] = Antilipoperoxidizing activity (gamma irradiation, linoleic acid substrate, pentane); type: biochemical; settings: for % inhibition of pentane release from linoleic acid (lipid peroxidation): Substrate: Linoleic acid, relative to the controls; for Production of free radicals from linoleic acid, effect in words: Table 23
Procedure: 9. Antilipoperoxidizing activity
Similar to the preceding anti-radical method but where the KMB is replaced by linoleic acid (C18: 2), the gamma radiation releases pentane which is analyzed. The height of the pentane peak is proportional to the quantity free of radicals formed in the medium.

[3] = 1% Ultroser G, culture time 0-4 days, 1 μg/ml
[4] = 1% Ultroser G, culture time 0-4 days, 10 μg/ml
[5] = 1% Ultroser G, culture time 0-4 days, 100 μg/ml
[6] = 1% Ultroser G, culture time 4-8 days, 1 μg/ml
[7] = 1% Ultroser G, culture time 4-8 days, 10 μg/ml
[8] = 1% Ultroser G, culture time 4-8 days, 100 μg/ml
[9] = 1% Ultroser G, culture time 8-12 days, 1 μg/ml
[10] = 1% Ultroser G, culture time 8-12 days, 10 μg/ml
[11] = 1% Ultroser G, culture time 8-12 days, 100 μg/ml
[12] = foetal calf serum, Table 18, 0-4 days, 10 μg/ml
[13] = foetal calf serum, Table 18, 0-4 days, 100 μg/ml
[14] = foetal calf serum, Table 18, 4-8 days, 10 μg/ml
[15] = foetal calf serum, Table 18, 4-8 days, 100 μg/ml
[16] = foetal calf serum, Table 19, 0-4 days, 10 μg/ml
[17] = foetal calf serum, Table 19, 0-4 days, 100 μg/ml
[18] = foetal calf serum, Table 19, 4-8 days, 10 μg/ml
[19] = foetal calf serum, Table 19, 4-8 days, 100 μg/ml
[20] = foetal calf serum, 4-8 days, 10 μg/ml
[21] = foetal calf serum, 4-8 days, 100 μg/ml

Oc1cc(O)c2c(c1)O[C@H](c1cc(O)c(O)c(O)c1)[C@@H](O)[C@@H]2c1c(O)cc(O)c2c1O[C@H](c1cc(O)c(O)c(O)c1)[C@H](O)C2 [Substance Ia, GC-(4 alpha→8) EGC]
Average concentrations (m ± SD) of type II collagen in the clusters of chondrocytes at the end of 12 days of culture ([1]; 1% Ultroser G, 1 μg/ml): 105 ± 13 ng per μg of DNA
Cumulative release of coll.II over 12 days, Abs ([1]; 1% Ultroser G, 1 μg/ml): 482 ng/μg DNA/12 days
Average concentrations (m ± SD) of type II collagen in the clusters of chondrocytes at the end of 12 days of culture ([1]; 1% Ultroser G, 10 μg/ml): 165 ± 21 ng per μg of DNA
Cumulative release of coll.II over 12 days, Abs ([1]; 1% Ultroser G, 10 μg/ml): 787 ng/μg DNA/12 days
Average concentrations (m ± SD) of type II collagen in the clusters of chondrocytes at the end of 12 days of culture ([1]; 1% Ultroser G, 100 μg/ml): 175 ± 19 ng per μg of DNA
Cumulative release of coll.II over 12 days, Abs ([1]; 1% Ultroser G, 100 μg/ml): 962 ng/μg DNA/12 days
Coll. II released in the culture medium [1, 3]: 233 ± 25 ng/μg DNA/96 h
Coll. II released in the culture medium [1, 4]: 301 ± 52 ng/μg DNA/96 h
Coll. II released in the culture medium [1, 5]: 462 ± 51 ng/μg DNA/96 h
Coll. II released in the culture medium [1, 6]: 147 ± 19 ng/μg DNA/96 h
Coll. II released in the culture medium [1, 7]: 259 ± 22 ng/μg DNA/96 h
Coll. II released in the culture medium [1, 8]: 311 ± 41 ng/μg DNA/96 h
Coll. II released in the culture medium [1, 9]: 102.2 ± 10.96 ng/μg DNA/96 h
Coll. II released in the culture medium [1, 10]: 147 ± 21 ng/μg DNA/96 h
Coll. II released in the culture medium [1, 11]: 109 ± 23 ng/μg DNA/96 h
activity at 1 µg/mL ([1]; 1% Ultroser G, 1 μg/ml): 102%
activity at 10 µg/mL ([1]; 1% Ultroser G, 10 μg/ml): 166%
activity at 100 µg/mL ([1]; 1% Ultroser G, 100 μg/ml): 202%
Type II collagen in the culture media, effect in words ([1]; foetal calf serum): increases
Coll. II released in the culture medium [1, 12]: 44.3 ± 2.30 ng/μg DNA/96 H
Coll. II released in the culture medium [1, 13]: 77.0 ± 15.58 ng/μg DNA/96 H
Coll. II released in the culture medium [1, 14]: 34.0 ± 3.11 ng/μg DNA/96 H
Coll. II released in the culture medium [1, 15]: 47.2 ± 5.19 ng/μg DNA/96 H
Coll. II released in the culture medium [1, 16]: 37.4 ± 1.98 ng/μg DNA/96 H
Coll. II released in the culture medium [1, 17]: 44.2 ± 11.6 ng/μg DNA/96 H
Coll. II released in the culture medium [1, 18]: 25.3 ± 2.20 ng/μg DNA/96 H
Coll. II released in the culture medium [1, 19]: 38.2 ± 5.71 ng/μg DNA/96 H
Coll. II in the clusters [1, 20]: 78.8 ± 10.5 ng/μg DNA
Coll. II in the clusters [1, 21]: 114.7 ± 10.55 ng/μg DNA
Collagen II in the clusters, effect in words ([1]; foetal calf serum): An increase in collagen II is observed
% inhibition of pentane release from linoleic acid (lipid peroxidation) ([2]; 10^-3 M): 94%
% inhibition of pentane release from linoleic acid (lipid peroxidation) ([2]; 10^-4 M): 42%
% inhibition of pentane release from linoleic acid (lipid peroxidation) ([2]; 10^-5 M): 0%
Production of free radicals from linoleic acid, effect in words [2]: significantly inhibits

Oc1cc(O)c2c(c1)O[C@H](c1cc(O)c(O)c(O)c1)[C@@H](O)[C@@H]2c1c(O)cc(O)c2c1O[C@H](c1cc(O)c(O)c(O)c1)[C@@H](O)C2 [Substance Ib, GC-(4 alpha→8) GC]
Average concentrations (m ± SD) of type II collagen in the clusters of chondrocytes at the end of 12 days of culture ([1]; 1% Ultroser G, 1 μg/ml): 98 ± 9 ng per μg of DNA
Cumulative release of coll.II over 12 days, Abs ([1]; 1% Ultroser G, 1 μg/ml): 394 ng/μg DNA/12 days
Average concentrations (m ± SD) of type II collagen in the clusters of chondrocytes at the end of 12 days of culture ([1]; 1% Ultroser G, 10 μg/ml): 121 ± 10 ng per μg of DNA
Cumulative release of coll.II over 12 days, Abs ([1]; 1% Ultroser G, 10 μg/ml): 572 ng/μg DNA/12 days
Average concentrations (m ± SD) of type II collagen in the clusters of chondrocytes at the end of 12 days of culture ([1]; 1% Ultroser G, 100 μg/ml): 158 ± 16 ng per μg of DNA
Cumulative release of coll.II over 12 days, Abs ([1]; 1% Ultroser G, 100 μg/ml): 728 ng/μg DNA/12 days
Coll. II released in the culture medium [1, 3]: 222 ± 26 ng/μg DNA/96 h
Coll. II released in the culture medium [1, 4]: 322 ± 33 ng/μg DNA/96 h
Coll. II released in the culture medium [1, 5]: 392 ± 46 ng/μg DNA/96 h
Coll. II released in the culture medium [1, 6]: 112 ± 19 ng/μg DNA/96 h
Coll. II released in the culture medium [1, 7]: 158 ± 14 ng/μg DNA/96 h
Coll. II released in the culture medium [1, 8]: 190 ± 22 ng/μg DNA/96 h
Coll. II released in the culture medium [1, 9]: 59.9 ± 0.6 ng/μg DNA/96 h
Coll. II released in the culture medium [1, 10]: 91.7 ± 6.1 ng/μg DNA/96 h
Coll. II released in the culture medium [1, 11]: 137.7 ± 13.4 ng/μg DNA/96 h
activity at 1 µg/mL ([1]; 1% Ultroser G, 1 μg/ml): 107%
activity at 10 µg/mL ([1]; 1% Ultroser G, 10 μg/ml): 155%
activity at 100 µg/mL ([1]; 1% Ultroser G, 100 μg/ml): 197%
Type II collagen in the culture media, effect in words ([1]; foetal calf serum): increases
Coll. II released in the culture medium [1, 12]: 41.4 ± 0.51 ng/μg DNA/96 H
Coll. II released in the culture medium [1, 13]: 81.1 ± 20.2 ng/μg DNA/96 H
Coll. II released in the culture medium [1, 14]: 33.3 ± 4.61 ng/μg DNA/96 H
Coll. II released in the culture medium [1, 15]: 55.0 ± 17.21 ng/μg DNA/96 H
Coll. II released in the culture medium [1, 16]: 38.2 ± 2.60 ng/μg DNA/96 H
Coll. II released in the culture medium [1, 17]: 56.3 ± 12.41 ng/μg DNA/96 H
Coll. II released in the culture medium [1, 18]: 29.6 ± 3.44 ng/μg DNA/96 H
Coll. II released in the culture medium [1, 19]: 46.3 ± 2.61 ng/μg DNA/96 H
Coll. II in the clusters [1, 20]: 81.6 ± 16.00 ng/μg DNA
Coll. II in the clusters [1, 21]: 113.2 ± 18.25 ng/μg DNA
Collagen II in the clusters, effect in words ([1]; foetal calf serum): An increase in collagen II is observed
% inhibition of pentane release from linoleic acid (lipid peroxidation) ([2]; 10^-3 M): 93%
% inhibition of pentane release from linoleic acid (lipid peroxidation) ([2]; 10^-4 M): 45%
% inhibition of pentane release from linoleic acid (lipid peroxidation) ([2]; 10^-5 M): 0%
Production of free radicals from linoleic acid, effect in words [2]: significantly inhibits
